“Also recorded” adds a separate entry of the source.
These substances were tested against T1, ERα (Homo sapiens, UniProt P03372) (assay: ERα luciferase reporter gene transcription activation in transfected Hela cells). Details: Hela cells, 10^−5 M, 24 h.
T1 construct: expressed in transfected cells; host or cells: Hela cells (ER expression free)
T1 sequence (P03372 1-595): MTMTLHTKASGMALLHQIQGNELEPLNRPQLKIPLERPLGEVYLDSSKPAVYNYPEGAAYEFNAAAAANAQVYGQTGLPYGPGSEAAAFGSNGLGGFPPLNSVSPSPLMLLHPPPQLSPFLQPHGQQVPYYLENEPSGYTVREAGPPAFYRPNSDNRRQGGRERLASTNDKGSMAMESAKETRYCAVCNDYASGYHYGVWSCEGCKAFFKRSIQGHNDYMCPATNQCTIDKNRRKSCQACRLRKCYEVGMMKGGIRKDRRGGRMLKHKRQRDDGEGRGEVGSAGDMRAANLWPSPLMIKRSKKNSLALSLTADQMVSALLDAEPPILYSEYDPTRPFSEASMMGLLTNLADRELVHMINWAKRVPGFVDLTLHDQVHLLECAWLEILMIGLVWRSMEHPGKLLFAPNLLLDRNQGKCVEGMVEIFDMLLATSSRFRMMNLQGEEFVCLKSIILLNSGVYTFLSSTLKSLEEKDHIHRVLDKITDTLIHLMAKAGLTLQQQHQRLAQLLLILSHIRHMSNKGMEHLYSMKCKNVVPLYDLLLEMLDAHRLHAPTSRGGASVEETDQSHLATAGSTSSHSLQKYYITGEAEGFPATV
Assay type: cell-based
From the text: (§1) Actually, estrogens show their biological activity by regulating estrogen responding genetic transcription.
(§2) Formulation of sample solutions of catechin, (−)epicatechin-3-O-gallate, naringenin-4′-O-glucoside, phlorizin, emodin, chrysophanol (separately obtained from Example 1):
(§3) Catechin, (−)epicatechin-3-O-gallate, naringenin-4′-O-glucoside, phlorizin, emodin, chrysophanol in corresponding weights were separately weighed precisely, than added with DMSO for dissolution, the corresponding sample solution high dose groups (10 μM or 1 μM), were diluted in certain times to separately obtain low dose groups (1 μM to 0.001 μM).
(§4) Under condition of 37° C. and 5% CO2, Hela cells were cultured in phenol red-free high sugar DMEM culture medium containing 10% calf serum in incubator, the cells were spread in 60% density on 96-well plate when cell density was about 90%, each well was added with 150 ul of phenol red-free DMEM culture medium containing 10% serum, cultivation was performed overnight. To each well of the 96-well plate, 100 ul of serum-free DMEM culture medium and 0.4 μg plasmid (ptk-ERE-luc 2 μg, tk-Renila 1 μg, ERα or ERβ 1 μg) were used for transfection. After 6 h of transfection, each well was added with 150 ul of serum-free phenol red-free DMEM culture medium. Three wells were selected form each group, added with 10^−8M estradiol E2, and substance to be tested in different concentrations, 15 ul/well (sample 4-5 concentration gradient groups), continuously cultured under condition of 37° C., 5% CO2 for 24 h. After 24 h, each well was added with 80 μl of cell disruption solution, and the cells were subjected to freeze thawing once to be sufficiently disrupted. As for the cell lysis solution of each well, its activities to firefly luciferase and Renila luciferase were separately measured.

| Substance | ERα (% of the control) mean ± S.D. |
| --- | --- |
| catechin | 128.00 ± 8.74 % of the control |

Same assay, conditions: Hela cells, 10^−5 M, estradiol at 10^−8M

| Substance | ERα (% of estradiol) |
| --- | --- |
| catechin | (60.23) % of estradiol |

Same assay, conditions: Hela cells, 10^−6 M, 24 h

| Substance | ERα (% of the control) mean ± S.D. |
| --- | --- |
| catechin | 108.85 ± 8.87 % of the control |

Same assay, conditions: Hela cells, 10^−6 M, estradiol at 10^−8M

| Substance | ERα (% of estradiol) |
| --- | --- |
| catechin | (51.22) % of estradiol |

Same assay, conditions: Hela cells, 10^−7 M, 24 h

| Substance | ERα (% of the control) mean ± S.D. |
| --- | --- |
| catechin | 106.72 ± 12.84 % of the control |

Same assay, conditions: Hela cells, 10^−7 M, estradiol at 10^−8M

| Substance | ERα (% of estradiol) |
| --- | --- |
| catechin | (50.22) % of estradiol |

Same assay, conditions: Hela cells, 10^−8 M, 24 h

| Substance | ERα (% of the control) mean ± S.D. |
| --- | --- |
| catechin | 102.89 ± 10.21 % of the control |

Same assay, conditions: Hela cells, 10^−8 M, estradiol at 10^−8M

| Substance | ERα (% of estradiol) |
| --- | --- |
| catechin | (48.42) % of estradiol |

Same assay, conditions: luciferase reporter gene

| Substance | concentration at which the transcriptional activity of ERα is agonized |
| --- | --- |
| catechin | 10^−5 M |

The substances below were run on estrogen receptor (assay: Estrogen receptor activation test: overall estrogen activity and ERβ versus ERα comparison). Details: Hela cells, sample 10^−5 M.
Assay type: cell-based
Method: as §1, §4

| Substance | ERβ/ERα (both % of estradiol at 10^−8M) |
| --- | --- |
| catechin | 1.28 |

Same assay, conditions: Hela cells, sample 10^−6 M

| Substance | ERβ/ERα (both % of estradiol at 10^−8M) |
| --- | --- |
| catechin | 1.05 |

Same assay, conditions: Hela cells, sample 10^−7 M

| Substance | ERβ/ERα (both % of estradiol at 10^−8M) |
| --- | --- |
| catechin | 1.06 |

Same assay, conditions: Hela cells, sample 10^−8 M

| Substance | ERβ/ERα (both % of estradiol at 10^−8M) |
| --- | --- |
| catechin | 1.09 |

Same assay, conditions: estradiol as positive control

| Substance | estrogen activity / estrogen receptor activation (in words) |
| --- | --- |
| catechin | show relevance to estrogen receptor activation; also recorded: potent activity of estrogen |

Same assay, conditions: result in words

| Substance | selectivity to receptor subtypes (ERα vs ERβ) |
| --- | --- |
| catechin | no significant selectivity to receptor subtypes |

These substances were tested against T2, ERβ (Homo sapiens, UniProt Q92731) (assay: ERβ luciferase reporter gene transcription activation in transfected Hela cells). Details: Hela cells, 10^−5 M, 24 h.
T2 construct: expressed in transfected cells; host or cells: Hela cells (ER expression free)
T2 sequence (Q92731 whole entry): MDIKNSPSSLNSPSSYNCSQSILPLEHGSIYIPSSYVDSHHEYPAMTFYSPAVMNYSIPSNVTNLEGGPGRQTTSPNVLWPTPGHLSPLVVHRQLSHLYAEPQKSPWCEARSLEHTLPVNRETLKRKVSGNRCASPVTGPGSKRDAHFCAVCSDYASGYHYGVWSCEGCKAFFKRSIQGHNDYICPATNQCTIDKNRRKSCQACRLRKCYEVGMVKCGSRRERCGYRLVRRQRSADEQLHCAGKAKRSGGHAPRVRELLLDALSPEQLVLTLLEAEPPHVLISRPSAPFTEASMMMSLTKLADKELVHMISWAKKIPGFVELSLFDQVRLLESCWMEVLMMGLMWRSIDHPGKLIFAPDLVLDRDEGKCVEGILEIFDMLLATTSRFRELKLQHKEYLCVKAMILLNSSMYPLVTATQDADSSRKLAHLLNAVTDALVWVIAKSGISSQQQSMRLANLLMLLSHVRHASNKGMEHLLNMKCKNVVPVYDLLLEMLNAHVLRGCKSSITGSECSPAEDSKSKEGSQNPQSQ
Assay type: cell-based
From the text: as §1, §2, §3, §4

| Substance | ERβ (% of the control) mean ± S.D. |
| --- | --- |
| catechin | 115.59 ± 13.39 % of the control |

Same assay, conditions: Hela cells, 10^−5 M, estradiol at 10^−8M

| Substance | ERβ (% of estradiol) |
| --- | --- |
| catechin | (59.86) % of estradiol |

Same assay, conditions: Hela cells, 10^−6 M, 24 h

| Substance | ERβ (% of the control) mean ± S.D. |
| --- | --- |
| catechin | 103.71 ± 9.07 % of the control |

Same assay, conditions: Hela cells, 10^−6 M, estradiol at 10^−8M

| Substance | ERβ (% of estradiol) |
| --- | --- |
| catechin | (53.71) % of estradiol |

Same assay, conditions: Hela cells, 10^−7 M, 24 h

| Substance | ERβ (% of the control) mean ± S.D. |
| --- | --- |
| catechin | 102.57 ± 1.04 % of the control |

Same assay, conditions: Hela cells, 10^−7 M, estradiol at 10^−8M

| Substance | ERβ (% of estradiol) |
| --- | --- |
| catechin | (53.12) % of estradiol |

Same assay, conditions: Hela cells, 10^−8 M, 24 h

| Substance | ERβ (% of the control) mean ± S.D. |
| --- | --- |
| catechin | 101.93 ± 2.27 % of the control |

Same assay, conditions: Hela cells, 10^−8 M, estradiol at 10^−8M

| Substance | ERβ (% of estradiol) |
| --- | --- |
| catechin | (52.79) % of estradiol |

Same assay, conditions: luciferase reporter gene

| Substance | concentration at which the transcriptional activity of ERβ is agonized |
| --- | --- |
| catechin | 10^−5 M |

Source: patent publication US20130288989A1, “NEW USE OF CHEMICAL INGREDIENTS IN CYNOMORIUM AS PHYTOESTROGEN” (TIANJIN UNIVERSITY OF TRADITIONAL CHINESE MEDICINE, priority 2010, published 2013)
